Assay results taken from DBAASP.
≈ marks a conversion by molar mass, not a printed value.

Assays:
Assay in all cases: ≥ marks a high value that may be exact or a test limit, other limits are often not marked, values filed in µg/mL are converted to µM
[1] = test system: Candida albicans ATCC 10231
[2] = test system: Bacillus subtilis ATCC 23857
[3] = test system: Staphylococcus aureus NCTC 10788
[4] = test system: Candida albicans ATCC 2002
[5] = test system: Escherichia coli ATCC 25922
[6] = test system: Staphylococcus aureus ATCC 25923
[7] = test system: Pseudomonas aeruginosa CMCCB 10104
[8] = test system: Escherichia coli NCTC 10418
[9] = test system: Staphylococcus aureus NCTC 8325
[10] = test system: Candida albicans ATCC 90028
[11] = test system: Pseudomonas aeruginosa ATCC 9027
[12] = test system: Klebsiella pneumoniae ATCC 700603

| MIC [2] [µM] | MIC [5] [µM] | MIC [6] [µM] | SMILES | other results |
| --- | --- | --- | --- | --- |
| ≥ 362 | – | – | C[C@H](N)C(=O)N[C@@H](C)C(=O)N[C@@H](CCCN=C(N)N)C(=O)N[C@@H](CCCN=C(N)N)C(=O)N[C@@H](C)C(=O)N[C@@H](C)C(=O)N[C@@H](CCCN=C(N)N)C(=O)N[C@@H](CCCN=C(N)N)C(=O)N[C@@H](C)C(=O)N[C@@H](C)C(=O)N[C@@H](CCCN=C(N)N)C(=O)N[C@@H](CCCN=C(N)N)C(N)=O [AARRAARRAARR] | MIC [1]: > 362 µM |
| – | – | – | CC(C)C[C@H](NC(=O)[C@H](CC(C)C)NC(=O)CNC(=O)CNC(=O)[C@H](CC(C)C)NC(=O)[C@H](CC(C)C)NC(=O)CNC(=O)[C@H](CC(C)C)NC(=O)[C@@H](N)Cc1ccccc1)C(N)=O [FLGLLGGLL] | MIC [3]: ≥ 284 µM |
| – | 1.3 (≈ 3.4 µg/mL) | 2.6 (≈ 6.79 µg/mL) | CC[C@H](C)[C@@H]1NC(=O)[C@H](C)NC(=O)[C@@H](NC(=O)[C@H](Cc2ccccc2)NC(=O)[C@@H](NC(=O)[C@@H](NC(=O)[C@@H]2CCCN2C(=O)[C@H](CC(C)C)NC(=O)[C@@H](NC(=O)[C@H](Cc2cnc[nH]2)NC(=O)[C@@H](NC(=O)[C@H](C)NC(=O)[C@@H](NC(=O)[C@H](CC(C)C)NC(=O)[C@H](CC(C)C)NC(=O)[C@@H](NC(=O)[C@H](C)NC(=O)[C@@H]2CCCN2C(=O)[C@H](CC(C)C)NC(=O)[C@@H](N)Cc2ccccc2)C(C)C)C(C)C)[C@@H](C)O)C(C)C)[C@@H](C)O)C(C)C)CSSC[C@@H](C(=O)O)NC(=O)[C@H](CCCCN)NC(=O)[C@H](CCCN=C(N)N)NC(=O)[C@H]([C@@H](C)O)NC1=O [FLPAVLLVATHVLPTVFCAITRKC] | MIC [4]: 2.6 µM (≈ 6.79 µg/mL); MIC [7]: 10.4 µM (≈ 27.2 µg/mL) |
| – | – | – | CC[C@H](C)[C@H](NC(=O)[C@@H](NC(=O)[C@@H]1CCCN1C(=O)[C@H](CC(C)C)NC(=O)[C@@H](N)Cc1ccccc1)C(C)C)C(=O)N[C@@H](C)C(=O)NCC(=O)N[C@H](C(=O)N[C@@H](CC(C)C)C(=O)N[C@@H](CO)C(=O)N[C@@H](CCCCN)C(=O)N[C@@H](CC(C)C)C(=O)N[C@@H](Cc1ccccc1)C(N)=O)C(C)C [FLPVIAGVLSKLF] | MIC [3]: 10 µM (≈ 14 µg/mL); MIC [8]: ≥ 40 µM |
| – | 1.79 (≈ 8.6 µg/mL) | 1.79 (≈ 8.6 µg/mL) | CC[C@H](C)[C@H](NC(=O)CN)C(=O)N[C@@H](Cc1ccccc1)C(=O)N[C@@H](CO)C(=O)N[C@@H](CCCCN)C(=O)N[C@H](C(=O)N[C@@H](CO)C(=O)NCC(=O)N[C@@H](CCCCN)C(=O)N[C@@H](C)C(=O)N[C@H](C(=O)N[C@@H](CCCCN)C(=O)N[C@@H](CC(N)=O)C(=O)N[C@@H](CC(C)C)C(=O)N[C@@H](Cc1ccccc1)C(=O)N[C@H](C(=O)N[C@@H](CCCCN)C(=O)NCC(=O)N[C@@H](C)C(=O)N[C@@H](CCC(=O)O)C(=O)N[C@@H](CC(N)=O)C(=O)N[C@H](C(=O)NCC(=O)N[C@@H](CCCCN)C(=O)N[C@@H](Cc1cnc[nH]1)C(=O)N[C@H](C(=O)NCC(=O)N[C@@H](CCSC)C(=O)N[C@@H](CC(=O)O)C(=O)N[C@H](C(=O)N[C@H](C(=O)N[C@@H](CCCN=C(N)N)C(=O)N[C@H](C(=O)NCC(=O)N[C@H](C(=O)N[C@@H](CC(=O)O)C(=O)N[C@H](C(=O)N[C@H](C(=O)NCC(=O)N[C@H]1CSSC[C@@H](C(=O)O)NC(=O)[C@H](CCC(=O)O)NC(=O)CNC(=O)[C@H](CCCCN)NC(=O)[C@H]([C@@H](C)CC)NC(=O)[C@H](CCCCN)NC1=O)C(C)C)C(C)C)[C@@H](C)CC)[C@@H](C)O)C(C)C)C(C)C)C(C)C)C(C)C)[C@@H](C)CC)[C@@H](C)CC)[C@@H](C)CC [GIFSKISGKAIKNLFIKGAENVGKHVGMDVVRTGIDVVGCKIKGEC] | MIC [4]: 1.79 µM (≈ 8.6 µg/mL); MIC [7]: 1.79 µM (≈ 8.6 µg/mL) |
| 8 (≈ 10.8 µg/mL) | > 128 | – | CC[C@H](C)[C@H](NC(=O)CN)C(=O)N[C@H](C(=O)N[C@@H](CCCN=C(N)N)C(=O)NCC(=O)N[C@H](C(=O)N[C@H](C(=O)N[C@@H](CCCN=C(N)N)C(=O)N[C@@H](CCCN=C(N)N)C(=O)N[C@H](C(=O)N[C@@H](CCCCN)C(=O)NCC(N)=O)[C@@H](C)CC)[C@@H](C)CC)[C@@H](C)CC)[C@@H](C)CC [GIIRGIIRRIKG] | – |
| – | 5.12 (≈ 10.2 µg/mL) | 10.2 (≈ 20.4 µg/mL) | CC[C@H](C)[C@H](NC(=O)CN)C(=O)N[C@@H](CC(C)C)C(=O)N[C@@H](CO)C(=O)NCC(=O)N[C@@H](CC(C)C)C(=O)N[C@@H](CC(C)C)C(=O)NCC(=O)N[C@H](C(=O)NCC(=O)N[C@@H](CCCCN)C(=O)N[C@@H](CCSC)C(=O)N[C@@H](CC(C)C)C(=O)N[C@H](C(=O)N[C@H]1CSSC[C@@H](C(=O)O)NC(=O)[C@H](CC(C)C)NC(=O)CNC(=O)[C@H](CO)NC(=O)[C@H](CC(C)C)NC(=O)CNC1=O)C(C)C)C(C)C [GILSGLLGVGKMLVCGLSGLC] | MIC [4]: 5.12 µM (≈ 10.2 µg/mL); MIC [7]: 10.2 µM (≈ 20.4 µg/mL) |
| 16 (≈ 23.2 µg/mL) | 64 (≈ 92.8 µg/mL) | – | CC[C@H](C)[C@H](NC(=O)CN)C(=O)N[C@@H](CCCN=C(N)N)C(=O)N[C@@H](CCCN=C(N)N)C(=O)NCC(=O)N[C@H](C(=O)N[C@H](C(=O)N[C@@H](CCCN=C(N)N)C(=O)N[C@H](C(=O)N[C@H](C(=O)N[C@@H](CCCCN)C(=O)N[C@@H](CCCN=C(N)N)C(N)=O)[C@@H](C)CC)[C@@H](C)CC)[C@@H](C)CC)[C@@H](C)CC [GIRRGIIRIIKR] | – |
| ≥ 128 | > 128 | – | CC[C@H](C)[C@H](NC(=O)CN)C(=O)N[C@@H](CCCN=C(N)N)C(=O)N[C@@H](CCCN=C(N)N)C(=O)NCC(=O)N[C@H](C(=O)N[C@@H](CCCN=C(N)N)C(=O)N[C@@H](CCCN=C(N)N)C(=O)N[C@H](C(=O)N[C@@H](CCCCN)C(=O)N[C@@H](CCCCN)C(=O)N[C@@H](CCCN=C(N)N)C(N)=O)[C@@H](C)CC)[C@@H](C)CC [GIRRGIRRIKKR] | – |
| – | > 100 | – | CC[C@H](C)[C@H](N)C(=O)N[C@@H](CC(C)C)C(=O)N1CCC[C@H]1C(=O)N[C@H](C(=O)N[C@@H](CC(C)C)C(=O)NCC(=O)N[C@@H](CC(N)=O)C(=O)N[C@@H](CC(C)C)C(=O)N[C@@H](CC(C)C)C(=O)N[C@@H](CC(N)=O)C(=O)NCC(=O)N[C@@H](CC(C)C)C(=O)N[C@@H](CC(C)C)C(N)=O)[C@@H](C)CC [ILPILGNLLNGLL] | MIC [9]: ≥ 100 µM; MIC [10]: ≥ 100 µM |
| 4 (≈ 5.86 µg/mL) | 4 (≈ 5.86 µg/mL) | 4 (≈ 5.86 µg/mL) | CC[C@H](C)[C@H](NC(=O)[C@H](CCCCN)NC(=O)[C@H](CCCCN)NC(=O)[C@H](C)NC(=O)[C@@H](NC(=O)[C@H](C)NC(=O)[C@H](CC(C)C)NC(=O)[C@H](CC(C)C)NC(=O)[C@H](C)NC(=O)[C@H](CCCCN)NC(=O)[C@H](CC(C)C)NC(=O)[C@H](C)NC(=O)[C@@H](N)CC(C)C)C(C)C)C(=O)N[C@@H](CC(C)C)C(N)=O [LALKALLAVAKKIL] | MIC [11]: 8 µM (≈ 11.7 µg/mL); MIC [12]: 8 µM (≈ 11.7 µg/mL) |
| 16 (≈ 23.2 µg/mL) | 8 (≈ 11.6 µg/mL) | 4 (≈ 5.8 µg/mL) | CC[C@H](C)[C@H](NC(=O)[C@H](CCCCN)NC(=O)[C@H](CCCCN)NC(=O)[C@H](C)NC(=O)[C@@H](NC(=O)[C@H](C)NC(=O)[C@H](CC(C)C)NC(=O)[C@H](CC(C)C)NC(=O)[C@H](C)NC(=O)[C@H](C)NC(=O)[C@H](CC(C)C)NC(=O)[C@H](CC(N)=O)NC(=O)[C@@H](N)CC(C)C)C(C)C)C(=O)N[C@@H](CC(C)C)C(N)=O [LNLAALLAVAKKIL] | MIC [11]: 32 µM (≈ 46.4 µg/mL); MIC [12]: 32 µM (≈ 46.4 µg/mL) |
| 8 (≈ 11.7 µg/mL) | 8 (≈ 11.7 µg/mL) | 32 (≈ 46.9 µg/mL) | CC(C)C[C@H](NC(=O)[C@H](C)NC(=O)[C@H](CCCCN)NC(=O)[C@H](CCCCN)NC(=O)[C@H](C)NC(=O)[C@@H](NC(=O)[C@H](C)NC(=O)[C@H](CC(C)C)NC(=O)[C@H](CC(C)C)NC(=O)[C@H](C)NC(=O)[C@H](CCCCN)NC(=O)[C@H](CC(C)C)NC(=O)[C@H](CC(N)=O)NC(=O)[C@@H](N)CC(C)C)C(C)C)C(N)=O [LNLKALLAVAKKAL] | MIC [11]: 32 µM (≈ 46.9 µg/mL); MIC [12]: 32 µM (≈ 46.9 µg/mL) |
| 8 (≈ 11.7 µg/mL) | 8 (≈ 11.7 µg/mL) | 32 (≈ 46.9 µg/mL) | CC[C@H](C)[C@H](NC(=O)[C@H](CCCCN)NC(=O)[C@H](CCCCN)NC(=O)[C@H](C)NC(=O)[C@@H](NC(=O)[C@H](C)NC(=O)[C@H](CC(C)C)NC(=O)[C@H](CC(C)C)NC(=O)[C@H](C)NC(=O)[C@H](CCCCN)NC(=O)[C@H](CC(C)C)NC(=O)[C@H](CC(N)=O)NC(=O)[C@@H](N)CC(C)C)C(C)C)C(=O)N[C@@H](C)C(N)=O [LNLKALLAVAKKIA] | MIC [11]: 32 µM (≈ 46.9 µg/mL); MIC [12]: 16 µM (≈ 23.4 µg/mL) |
| – | 1.5 (≈ 3.92 µg/mL) | – | CC[C@H](C)[C@@H]1NC(=O)[C@H](CCCCN)NC(=O)[C@@H](NC(=O)[C@H](C)NC(=O)[C@@H](NC(=O)[C@H](CC(C)C)NC(=O)CNC(=O)[C@H](CC(C)C)NC(=O)CNC(=O)[C@@H](NC(=O)[C@H](CCCCN)NC(=O)CNC(=O)[C@H](CC(C)C)NC(=O)[C@H](CC(N)=O)NC(=O)[C@H](CCCCN)NC(=O)[C@H](CC(C)C)NC(=O)[C@@H](NC(=O)[C@H](CO)NC(=O)[C@H](CC(C)C)NC(=O)[C@H](CCSC)NC(=O)[C@@H](N)CO)C(C)C)C(C)C)C(C)C)CSSC[C@@H](C(=O)O)NC(=O)[C@H](CCC(N)=O)NC(=O)[C@H](CCCCN)NC(=O)[C@H](CC(N)=O)NC1=O [SMLSVLKNLGKVGLGLVACKINKQC] | MIC [9]: ≥ 55 µM; MIC [10]: ≥ 58 µM |
